According to patent US20210079443A1, “INDICATOR BAC[…] SELECTING AND […] EFFICACY OF THERAPEUTICS AND METHODS FOR USING SAME” (priority 2018, published 2021):

Columns and labels:
Experiment in all cases: Phage-Mediated Detection of Staphylococcus aureus
Format in all cases: cell-based
[1] = tested on: Staphylococcus aureus strain AR0461 (MRSA, CDC Panel)
Description: (§1) Samples of methicillin-resistant S. aureus (MRSA) were primed by adding 135 μl of samples containing S. aureus to rich media. The rich media included sub-inhibitory antibiotic (cefoxitin) to allow for specific enrichment and induction of MRSA. Samples were incubated in rich media for 1-2 hours. Following the priming of the samples, additional cefoxitin was added to the media and samples were incubated for an additional 2 hours. Staphylococcus aureus-specific bacteriophage NanoLuc Indicator phage was added to the samples and incubated for 2 hours. Lysis buffer and NANO-GLO® reagent were added. Following 5 minutes of incubation, measurements of bioluminescence were taken using a GLOMAX® 96 instrument. A signal/background ratio ≥750 RLU indicated positive detection of S. aureus. A signal/background ratio of <750 RLU indicated the sample was negative for S. aureus.

[2] = tested on: Staphylococcus aureus strain AR0465 (MRSA, CDC Panel)
Description: as §1

[3] = tested on: Staphylococcus aureus strain AR0467 (MRSA, CDC Panel)
Description: as §1

[4] = tested on: Staphylococcus aureus strain AR0468 (MRSA, CDC Panel)
Description: as §1

[5] = tested on: Staphylococcus aureus strain AR0469 (MRSA, CDC Panel)
Description: as §1

[6] = tested on: Staphylococcus aureus strain AR0470 (MRSA, CDC Panel)
Description: as §1

[7] = tested on: Staphylococcus aureus strain AR0474 (MRSA, CDC Panel)
Description: as §1

[8] = tested on: Staphylococcus aureus strain AR0475 (MRSA, CDC Panel)
Description: as §1

[9] = tested on: Staphylococcus aureus strain AR0476 (MRSA, CDC Panel)
Description: as §1

[10] = tested on: Staphylococcus aureus strain AR0477 (MRSA, CDC Panel)
Description: as §1

[11] = tested on: Staphylococcus aureus strain AR0478 (MRSA, CDC Panel)
Description: as §1

[12] = tested on: Staphylococcus aureus strain AR0479 (MRSA, CDC Panel)
Description: as §1

[13] = tested on: Staphylococcus aureus strain AR0480 (MRSA, CDC Panel)
Description: as §1

[14] = tested on: Staphylococcus aureus strain AR0482 (MRSA, CDC Panel)
Description: as §1

[15] = tested on: Staphylococcus aureus strain AR0485 (MSSA, CDC Panel)
Description: as §1

[16] = tested on: Staphylococcus aureus strain AR0486 (MSSA, CDC Panel)
Description: as §1

[17] = tested on: Staphylococcus aureus strain AR0488 (MSSA, CDC Panel)
Description: as §1

[18] = tested on: Staphylococcus aureus strain AR0491 (MSSA, CDC Panel)
Description: as §1

[19] = tested on: Staphylococcus aureus strain AR0492 (MSSA, CDC Panel)
Description: as §1

[20] = tested on: Staphylococcus aureus strain BAA-2313 (MRSA, ATCC)
Description: as §1

[21] = tested on: Staphylococcus aureus strain BAA-42 (MRSA, ATCC)
Description: as §1

## CO[C@@]1(NC(=O)Cc2cccs2)C(=O)N2C(C(=O)O)=C(COC(N)=O)CS[C@@H]21 [Cefoxitin, cefoxitin]
[1]; detected CFU 25, cefoxitin 1 ug/mL
  Cefoxitin Concentration 1 ug/mL (indicator phage luminescence signal): 3460 RLU
[1]; detected CFU 25, cefoxitin 2 ug/mL
  Cefoxitin Concentration 2 ug/mL (indicator phage luminescence signal): 1846 RLU
[1]; detected CFU 25, cefoxitin 4 ug/mL
  Cefoxitin Concentration 4 ug/mL (indicator phage luminescence signal): 910 RLU
[2]; detected CFU 101, cefoxitin 1 ug/mL
  Cefoxitin Concentration 1 ug/mL (indicator phage luminescence signal): 8263 RLU
[2]; detected CFU 101, cefoxitin 2 ug/mL
  Cefoxitin Concentration 2 ug/mL (indicator phage luminescence signal): 4086 RLU
[2]; detected CFU 101, cefoxitin 4 ug/mL
  Cefoxitin Concentration 4 ug/mL (indicator phage luminescence signal): 3006 RLU
[3]; detected CFU 171, cefoxitin 1 ug/mL
  Cefoxitin Concentration 1 ug/mL (indicator phage luminescence signal): 9908 RLU
[3]; detected CFU 171, cefoxitin 2 ug/mL
  Cefoxitin Concentration 2 ug/mL (indicator phage luminescence signal): 6497 RLU
[3]; detected CFU 171, cefoxitin 4 ug/mL
  Cefoxitin Concentration 4 ug/mL (indicator phage luminescence signal): 4401 RLU
[4]; detected CFU 169, cefoxitin 1 ug/mL
  Cefoxitin Concentration 1 ug/mL (indicator phage luminescence signal): 10330 RLU
[4]; detected CFU 169, cefoxitin 2 ug/mL
  Cefoxitin Concentration 2 ug/mL (indicator phage luminescence signal): 10070 RLU
[4]; detected CFU 169, cefoxitin 4 ug/mL
  Cefoxitin Concentration 4 ug/mL (indicator phage luminescence signal): 5002 RLU
[5]; detected CFU 523, cefoxitin 1 ug/mL
  Cefoxitin Concentration 1 ug/mL (indicator phage luminescence signal): 35110 RLU
[5]; detected CFU 523, cefoxitin 2 ug/mL
  Cefoxitin Concentration 2 ug/mL (indicator phage luminescence signal): 22030 RLU
[5]; detected CFU 523, cefoxitin 4 ug/mL
  Cefoxitin Concentration 4 ug/mL (indicator phage luminescence signal): 9007 RLU
[6]; detected CFU 215, cefoxitin 1 ug/mL
  Cefoxitin Concentration 1 ug/mL (indicator phage luminescence signal): 3502 RLU
[6]; detected CFU 215, cefoxitin 2 ug/mL
  Cefoxitin Concentration 2 ug/mL (indicator phage luminescence signal): 1846 RLU
[6]; detected CFU 215, cefoxitin 4 ug/mL
  Cefoxitin Concentration 4 ug/mL (indicator phage luminescence signal): 179 RLU
[7]; detected CFU 477, cefoxitin 1 ug/mL
  Cefoxitin Concentration 1 ug/mL (indicator phage luminescence signal): 3449 RLU
[7]; detected CFU 477, cefoxitin 2 ug/mL
  Cefoxitin Concentration 2 ug/mL (indicator phage luminescence signal): 2235 RLU
[7]; detected CFU 477, cefoxitin 4 ug/mL
  Cefoxitin Concentration 4 ug/mL (indicator phage luminescence signal): 1684 RLU
[8]; detected CFU 134, cefoxitin 1 ug/mL
  Cefoxitin Concentration 1 ug/mL (indicator phage luminescence signal): 52460 RLU
[8]; detected CFU 134, cefoxitin 2 ug/mL
  Cefoxitin Concentration 2 ug/mL (indicator phage luminescence signal): 57660 RLU
[8]; detected CFU 134, cefoxitin 4 ug/mL
  Cefoxitin Concentration 4 ug/mL (indicator phage luminescence signal): 34040 RLU
[9]; detected CFU 95, cefoxitin 1 ug/mL
  Cefoxitin Concentration 1 ug/mL (indicator phage luminescence signal): 245000 RLU
[9]; detected CFU 95, cefoxitin 2 ug/mL
  Cefoxitin Concentration 2 ug/mL (indicator phage luminescence signal): 52910 RLU
[9]; detected CFU 95, cefoxitin 4 ug/mL
  Cefoxitin Concentration 4 ug/mL (indicator phage luminescence signal): 21 RLU
[10]; detected CFU 471, cefoxitin 1 ug/mL
  Cefoxitin Concentration 1 ug/mL (indicator phage luminescence signal): 478000 RLU
[10]; detected CFU 471, cefoxitin 2 ug/mL
  Cefoxitin Concentration 2 ug/mL (indicator phage luminescence signal): 95970 RLU
[10]; detected CFU 471, cefoxitin 4 ug/mL
  Cefoxitin Concentration 4 ug/mL (indicator phage luminescence signal): 4068 RLU
[11]; detected CFU 183, cefoxitin 1 ug/mL
  Cefoxitin Concentration 1 ug/mL (indicator phage luminescence signal): 279700 RLU
[11]; detected CFU 183, cefoxitin 2 ug/mL
  Cefoxitin Concentration 2 ug/mL (indicator phage luminescence signal): 73090 RLU
[11]; detected CFU 183, cefoxitin 4 ug/mL
  Cefoxitin Concentration 4 ug/mL (indicator phage luminescence signal): 1519 RLU
[12]; detected CFU 52, cefoxitin 1 ug/mL
  Cefoxitin Concentration 1 ug/mL (indicator phage luminescence signal): 51560 RLU
[12]; detected CFU 52, cefoxitin 2 ug/mL
  Cefoxitin Concentration 2 ug/mL (indicator phage luminescence signal): 34730 RLU
[12]; detected CFU 52, cefoxitin 4 ug/mL
  Cefoxitin Concentration 4 ug/mL (indicator phage luminescence signal): 6803 RLU
[13]; detected CFU 356, cefoxitin 1 ug/mL
  Cefoxitin Concentration 1 ug/mL (indicator phage luminescence signal): 1038000 RLU
[13]; detected CFU 356, cefoxitin 2 ug/mL
  Cefoxitin Concentration 2 ug/mL (indicator phage luminescence signal): 430200 RLU
[13]; detected CFU 356, cefoxitin 4 ug/mL
  Cefoxitin Concentration 4 ug/mL (indicator phage luminescence signal): 127400 RLU
[14]; detected CFU 75, cefoxitin 1 ug/mL
  Cefoxitin Concentration 1 ug/mL (indicator phage luminescence signal): 6741 RLU
[14]; detected CFU 75, cefoxitin 2 ug/mL
  Cefoxitin Concentration 2 ug/mL (indicator phage luminescence signal): 2477 RLU
[14]; detected CFU 75, cefoxitin 4 ug/mL
  Cefoxitin Concentration 4 ug/mL (indicator phage luminescence signal): 204 RLU
[15]; detected CFU 190, cefoxitin 1 ug/mL
  Cefoxitin Concentration 1 ug/mL (indicator phage luminescence signal): 13930 RLU
[15]; detected CFU 190, cefoxitin 2 ug/mL
  Cefoxitin Concentration 2 ug/mL (indicator phage luminescence signal): 236 RLU
[15]; detected CFU 190, cefoxitin 4 ug/mL
  Cefoxitin Concentration 4 ug/mL (indicator phage luminescence signal): 301 RLU
[16]; detected CFU 220, cefoxitin 1 ug/mL
  Cefoxitin Concentration 1 ug/mL (indicator phage luminescence signal): 9217 RLU
[16]; detected CFU 220, cefoxitin 4 ug/mL
  Cefoxitin Concentration 4 ug/mL (indicator phage luminescence signal): 252 RLU
[17]; detected CFU 151, cefoxitin 1 ug/mL
  Cefoxitin Concentration 1 ug/mL (indicator phage luminescence signal): 15430 RLU
[17]; detected CFU 151, cefoxitin 2 ug/mL
  Cefoxitin Concentration 2 ug/mL (indicator phage luminescence signal): 207 RLU
[17]; detected CFU 151, cefoxitin 4 ug/mL
  Cefoxitin Concentration 4 ug/mL (indicator phage luminescence signal): 197 RLU
[18]; detected CFU 217, cefoxitin 1 ug/mL
  Cefoxitin Concentration 1 ug/mL (indicator phage luminescence signal): 40760 RLU
[18]; detected CFU 217, cefoxitin 2 ug/mL
  Cefoxitin Concentration 2 ug/mL (indicator phage luminescence signal): 215 RLU
[18]; detected CFU 217, cefoxitin 4 ug/mL
  Cefoxitin Concentration 4 ug/mL (indicator phage luminescence signal): 266 RLU
[19]; detected CFU 178, cefoxitin 1 ug/mL
  Cefoxitin Concentration 1 ug/mL (indicator phage luminescence signal): 13040 RLU
[19]; detected CFU 178, cefoxitin 2 ug/mL
  Cefoxitin Concentration 2 ug/mL (indicator phage luminescence signal): 194 RLU
[20]; detected CFU 192, cefoxitin 1 ug/mL
  Cefoxitin Concentration 1 ug/mL (indicator phage luminescence signal): 363300 RLU
[20]; detected CFU 192, cefoxitin 2 ug/mL
  Cefoxitin Concentration 2 ug/mL (indicator phage luminescence signal): 52440 RLU
[20]; detected CFU 192, cefoxitin 4 ug/mL
  Cefoxitin Concentration 4 ug/mL (indicator phage luminescence signal): 2409 RLU
[21]; detected CFU 165, cefoxitin 1 ug/mL
  Cefoxitin Concentration 1 ug/mL (indicator phage luminescence signal): 8634 RLU
[21]; detected CFU 165, cefoxitin 2 ug/mL
  Cefoxitin Concentration 2 ug/mL (indicator phage luminescence signal): 775 RLU
[21]; detected CFU 165, cefoxitin 4 ug/mL
  Cefoxitin Concentration 4 ug/mL (indicator phage luminescence signal): 240 RLU
